Measurements taken from patent US11638716B2, “Compounds, compositions, and methods for the treatment of disease” (F-star Therapeutics, Inc., priority 2017, dated 2023).

How the values were obtained:
Type in all cases: cell-based
IRF = assay: In vitro induction of IRF in THP1 dual cells (Lucia reporter, ISG54 promoter)
Protocol: (§1) Example 2. In Vitro Induction of IRF and NF-κβ in THP1 Cells
(§2) THP1 dual cells grown in complete media were treated with various concentrations of a compound of the present disclosure or DMSO control. Dual cells carry both secreted embryonic alkaline phosphatase (SEAP) reporter gene under the control of an IFN-β minimal promoter fused to five copies of the NF-kB consensus transcriptional response element to measure NF-kB activity and Lucia reporter gene under the control of an ISG54 minimal promoter to measure IRF activity. After 20 h incubation, IRF activity was assessed using QUANTI-luc to measure levels of Lucia and NF-kB activity was determined by measure SEAP levels at 620-655 nm. % induction was calculated from fold change in luminescence/absorbance compared to DMSO treated sample. […] EC50 values were generated by curve fit in Xlfit.
(§3) Cells grown in complete media were treated with various concentrations of a compound of the disclosure or DMSO control. Dual cells carry both secreted embryonic alkaline phosphatase (SEAP) reporter gene under the control of an IFN-β minimal promoter fused to five copies of the NF-kB consensus transcriptional response element to measure NF-kB activity and Lucia reporter gene under the control of an ISG54 minimal promoter to measure IRF activity. After 20 h incubation, IRF activity was assessed using QUANTI-luc to measure levels of Lucia and NF-kB activity was determined by measure SEAP levels at 620-655 nm. % induction was calculated from fold change in luminescence/absorbance compared to DMSO treated sample. EC50 values are generated by curve fit in Xlfit.

NF-κβ = assay: In vitro induction of NF-κβ in THP1 dual cells (SEAP reporter)
Protocol: as §1, §2, §3

[1] = test system: RAW-Lucia-ISG-STING KO cells; assay: IRF-type I IFN secreted luciferase in RAW-Lucia-ISG-STING KO cells; settings: compound alone, 19 hours
Protocol: FIG. 4 depicts RAW-Lucia-ISG-WT and RAW-Lucia-ISG-STING KO cells were stimulated with compound 2 or compound 4, alone for 19 hours. Activity of secreted luciferase (IRF-type I IFN activity) in cell culture supernatant was measured using Invivogen's Quanti-luc. Data is shown as fold induction over DMSO treated cells (mean±standard deviation of triplicate wells per stimulant). EC50 values were calculated using XLfit.

STING KO cells = assay: IRF and NF-kB reporter activity in STING KO cells; settings: 20 hours
Protocol: (§4) FIG. 21 depicts cells stably expressing both or either one of the reporters to measure IRF and NF-kB activity were treated with a range of concentrations of compound 1 or DMSO control for 20 hours. IRF activity was assessed using QUANTI-luc to measure levels of Lucia and NF-kB activity was determined by measure SEAP levels at 620-655 nm. % induction was calculated from fold change in luminescence/absorbance compared to DMSO treated sample. EC50 values are generated by curve fit in Xlfit.
as §4, with “22” for “21”, “2” for “1”
as §4, with “24” for “21”, “3” for “1”
as §4, with “27” for “21”, “4” for “1”
as §3

wild type STING = target: T1, wild type STING (Homo sapiens, UniProt Q86WV6, H232R); assay: IRF/NF-kB reporter cells, wild type STING; settings: 20 hours
T1 construct: expressed in transfected cells; host or cells: THP1-Dual-KI-STING-R232 (made from THP-Dual-STING KO cells)
T1 sequence (Q86WV6 whole entry H232R): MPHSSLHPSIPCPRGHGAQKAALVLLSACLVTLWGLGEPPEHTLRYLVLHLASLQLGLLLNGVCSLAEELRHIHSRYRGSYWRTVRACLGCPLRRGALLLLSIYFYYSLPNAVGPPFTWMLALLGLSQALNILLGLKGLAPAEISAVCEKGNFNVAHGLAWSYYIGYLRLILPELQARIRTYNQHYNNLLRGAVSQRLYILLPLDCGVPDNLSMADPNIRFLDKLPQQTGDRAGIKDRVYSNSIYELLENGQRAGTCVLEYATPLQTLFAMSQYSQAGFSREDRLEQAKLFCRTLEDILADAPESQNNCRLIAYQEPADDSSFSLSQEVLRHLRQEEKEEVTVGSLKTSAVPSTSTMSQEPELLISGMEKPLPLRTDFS
Protocol: as §4, with “22” for “21”, “2” for “1”
as §4, with “24” for “21”, “3” for “1”
as §4, with “27” for “21”, “4” for “1”
(§5) Cells grown in complete media were treated with various concentrations of a compound of the disclosure or DMSO control. […] After 20 h incubation, IRF activity was assessed using QUANTI-luc to measure levels of Lucia and NF-kB activity was determined by measure SEAP levels at 620-655 nm. % induction was calculated from fold change in luminescence/absorbance compared to DMSO treated sample. […]

[2] = target: T2, R71H-G230A-R293Q (HAQ) variant of hSTING (Homo sapiens, UniProt Q86WV6, G230A/H232R/R293Q/R71H); assay: IRF/NF-kB reporter cells, STING HAQ variant; settings: 20 hours
T2 construct: THP1-Dual-WT cells express STING-HAQ variant; endogenous in cells; host or cells: THP1-Dual-WT cells
T2 sequence (Q86WV6 whole entry R71H/G230A/H232R/R293Q): as the sequence (Q86WV6 whole entry H232R) above, with R71H, G230A, R293Q counted along it
Protocol: as §4, with “22” for “21”, “2” for “1”
as §4, with “24” for “21”, “3” for “1”
as §4, with “27” for “21”, “4” for “1”
as §5

wt-mSTING = target: T3, wt-mSTING (Mus musculus, UniProt Q3TBT3); assay: IRF/NF-kB reporter cells, wt-mSTING; settings: 20 hours
T3 construct: endogenous in cells
T3 sequence (Q3TBT3 1-378): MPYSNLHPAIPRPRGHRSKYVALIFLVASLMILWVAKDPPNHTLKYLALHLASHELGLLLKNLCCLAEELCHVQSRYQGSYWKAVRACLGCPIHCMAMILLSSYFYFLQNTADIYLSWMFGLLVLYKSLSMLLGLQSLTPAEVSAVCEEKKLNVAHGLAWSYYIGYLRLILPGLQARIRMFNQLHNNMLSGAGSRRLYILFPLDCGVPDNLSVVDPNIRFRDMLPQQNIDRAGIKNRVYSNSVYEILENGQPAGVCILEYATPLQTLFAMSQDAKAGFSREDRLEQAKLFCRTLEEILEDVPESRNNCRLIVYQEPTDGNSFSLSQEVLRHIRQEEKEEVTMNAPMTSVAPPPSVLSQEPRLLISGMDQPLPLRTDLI
Protocol: as §4, with “22” for “21”, “2” for “1”
as §4, with “24” for “21”, “3” for “1”
as §4, with “27” for “21”, “4” for “1”
as §5

[3] = test system: mouse bone marrow derived dendritic cells (DCs) and macrophages; assay: ISG gene expression (Taqman) in mouse bone marrow derived dendritic cells and macrophages; settings: 20 hours
Protocol: FIG. 23 depicts cryopreserved mouse bone marrow derived dendritic cells (DCs) and macrophages treated with a range of concentrations of compound 2 or DMSO control for 20 hours. Cell pellets were harvested to collect total RNA. The gene expression levels of ISGs were measured by Taqman Assays.

[4] = Homo sapiens, THP-1, 20 h incubation

| EC50 (IRF; [4]) [nM] | EC50 (NF-κβ; [4]) [nM] | Structure (SMILES) | EC50 (IRF; 20 h incubation) [nM] | EC50 (NF-κβ; 20 h incubation) [nM] | IRF activity in STING KO cells [1] | IRF activity in STING KO cells (STING KO cells) | NF-κβ in STING KO cells (STING KO cells) | activity against wild type STING (wild type STING) | activity against R71H-G230A-R293Q (HAQ) variant of hSTING [2] | activity against wt-mSTING (wt-mSTING) | ISG expression [3] | STING dependence of activity (STING KO cells) |
| --- | --- | --- | --- | --- | --- | --- | --- | --- | --- | --- | --- | --- |
| – | – | CCCCCCCCCCOc1ccc(C(=O)Oc2ccc(CSP3(=O)OC[C@H]4O[C@@H](n5cnc6c(N)ncnc65)[C@H](OP(=O)(O)OC[C@H]5O[C@@H](n6ccc(=O)[nH]c6=O)[C@H](F)[C@@H]5O3)[C@@H]4F)cc2)cc1 (some centres unmarked) [Compound 2] | < 50 | 1000 to 2000 | Neither compound induced IRF activity | did not induce | did not induce | possess activity | possess activity | possess activity | induces ISG expression | – |
| > 2000 | > 2000 | Nc1ncnc2c1ncn2[C@@H]1O[C@@H]2COP(=O)(O)O[C@H]3[C@@H](F)[C@H](n4ccc(=O)[nH]c4=O)O[C@@H]3COP(=O)(O)O[C@@H]1[C@@H]2F [Compound 1] | – | – | – | did not induce | did not induce | – | – | – | – | possess STING dependent activity |
